These are literature values, as cited in patent US20230226006A1, “Compositions for the Treatment of Dry Eye and Methods of Use Thereof” (The Schepens Eye Research Institute, Inc., priority 2017, published 2023).

As to `C=CCN=C=S` [Allyl isothiocyanate, 3-Isothiocyanato-1-propene], the “Solubility in organic solvents” value (organic solvents) was “well soluble”. In addition, the Solubility in water result (water) is given as “slightly soluble”.
